{"source": "patent EP4623912A1", "about": "“A METHOD FOR DEFATTENING A STEATOTIC LIVER EX VIVO” (ETH Zurich, priority 2024, dated 2025)", "key": {"male C57BL/6N mice": {"test_system": "male C57BL/6N mice", "experiment": "Murine NASH model (HFD, glucose/fructose water, thermoneutral housing)", "assay_type": "in vivo, mouse", "description": "To model NASH in murine liver, male C57BL/6N mice were challenged with HFD for 24 weeks in conjunction with 18.9 g/L glucose&23.1 g/L fructose containing drinking water under thermoneutral housing condition (29°C) for 12 weeks before the administration of UCB9608 through HFD (15 mg/kg) for another 12 weeks. Then the mice were analysed in EcoMRI for body composition measurement before 6 hours fasting, followed by dissection to harvest liver and sample blood.\nTotal RNA was extracted from adipose depots, liver or in vitro cell cultures via Trizol reagent (Invitrogen) according to the manufacturer's instructions. Genomic DNA was removed from the crude RNA samples by DNase treatment (NEB BioLabs). For individual sample, 1 µg of total RNA was used to convert into cDNA library by using the High-Capacity cDNA Reverse transcription kit (Applied Biosystems, 4368813). Quantitative PCR was performed using KAPA SYBR FAST Universal kit (Roche, KK4618) on ViiA7 (Applied Biosystems) and the relative transcript levels were normalized to […] expression via ΔΔCt method. Table 2: Sequences of qPCR primers used in this study.\nPlasma collected from mice under different conditions was used to determine levels of lipolysis and liver injury. FFA levels were measured via NEFA assay kit (Wako NEFA kit). TG levels were determined via TG assay kit (Roche Trig/GB reagent). ALT (MAK052, Sigma) and AST (MAK055, Sigma) assay kits were used to determine ALT and AST activity according to the manufacturer's instructions. The absorbance was monitored using Synergy Gen5 Platereader.\nWeight of liver pieces (50-100 mg) was recorded before homogenization by 1 mL isopropanol per 50 mg tissue. The homogenates were incubated at room temperature with rotating before spinning down to remove debris at 2000×g for 10 min and collect supernatant. The TG levels were determined (Roche Trig/GB reagent) in Synergy Gen5 Platereader and normalized to the weight of liver pieces.\nFor NASH cohort, livers were dissected and fixed with 4% PFA in PBS for 24 h at 4°C. The samples were sent to the University of Zurich for histologic analyses. Briefly, liver tissues were dehydrated and embedded in paraffin and underwent section at 3 µm. The slides were stained with hematoxylin and eosin (H&E) and Gomori Green Trichrome directly or stained with anti-cleaved Caspase 3 after antigen retrieval. Afterwards, the images were captured by digital slide scanners and the grade of steatosis, ballooning, inflammation and fibrosis were quantified via the NASH Clinical Research Network Scoring System (Kleiner,D.E. et al. Hepatology 41, (2005)). To perform ORO staining, the fixed samples were sectioned, and the slides were stained via Oil Red O solution, followed by counter-staining with eosin. The images were acquired by digital slide scanners."}, "[1]": {"test_system": "mouse model with organ engraftment", "conditions": "in vivo; cited from earlier work"}, "C57BL/6N male mice": {"test_system": "C57BL/6N male mice", "experiment": "Indirect calorimetry in HFD-fed mice", "assay_type": "in vivo, mouse", "conditions": "HFD mixed with UCB9608 (5 mg/kg) 3 weeks, vs DMSO", "description": "8-10 weeks old C57BL/6N male mice were fed on HFD mixing with DMSO or UCB9608 (5 mg/kg) for 3 weeks before indirect calorimetry measurements were performed with Phenomaster (TSE systems) according to the manufacturer's instructions. Animals were single caged and adapted to the metabolic cage for 48h prior to metabolic recording. The energy expenditure between both groups was analyzed via ANCOVA method and RER was analyzed via two-way ANOVA method."}, "[2]": {"experiment": "Precipitation of DMSO solution on mixing with water", "assay_type": "physicochemical", "conditions": "dissolved in DMSO, not circulated"}, "[3]": {"conditions": "NASH mice, UCB9608 through HFD (15 mg/kg) 12 weeks"}, "[4]": {"conditions": "NASH mice, liver histology, UCB9608 12 weeks vs vehicle"}}, "note": "Entries after “also recorded” stand apart in the source; their conditions may differ."}
{"smiles": "COc1ccc(NC(=O)N2CCN(c3nc(N)nc4c3cnn4C)[C@@H](C)C2)c(C)c1", "note": "[UCB9608]", "values": [{"measurement": "inflammation levels by transcript levels of inflammatory markers", "setting": "male C57BL/6N mice; NASH livers, qPCR (Fig. 7j)", "value": "mitigation"}, {"measurement": "degree of fibrosis-related marker expression", "setting": "male C57BL/6N mice; NASH livers, qPCR (Fig. 7k), vs vehicle", "value": "substantially ameliorated"}, {"measurement": "ALT activity in the plasma", "setting": "male C57BL/6N mice; [3]", "value": "reduction"}, {"measurement": "AST activity in the plasma", "setting": "male C57BL/6N mice; [3]", "value": "reduction"}, {"measurement": "TG levels in the plasma", "setting": "male C57BL/6N mice; [3]", "value": "reduction; also recorded: reduced"}, {"measurement": "fatty acid oxidation (liver)", "setting": "male C57BL/6N mice; [3]", "value": "significant elevation"}, {"measurement": "hepatic TG levels", "setting": "male C57BL/6N mice; [3]", "value": "reduced"}, {"measurement": "liver mass/body weight ratio", "setting": "male C57BL/6N mice; [3]", "value": "reduced"}, {"measurement": "fat mass", "setting": "male C57BL/6N mice; NASH mice, UCB9608 through HFD (15 mg/kg) 12 weeks, EcoMRI", "value": "significant loss"}, {"measurement": "body weight", "setting": "male C57BL/6N mice; NASH mice, UCB9608 through HFD (15 mg/kg) 12 weeks, vs vehicle", "value": "significant loss"}, {"measurement": "NAFLD activity score", "setting": "male C57BL/6N mice; [4]", "value": "significantly lower"}, {"measurement": "fibrosis grade", "setting": "male C57BL/6N mice; [4]", "value": "significantly lower"}, {"measurement": "inflammation levels", "setting": "male C57BL/6N mice; [4]", "value": "significantly lower"}, {"measurement": "liver injury", "setting": "male C57BL/6N mice; [4]", "value": "significantly lower"}, {"measurement": "steatosis grade", "setting": "male C57BL/6N mice; [4]", "value": "significantly lower"}, {"measurement": "efficacy in the mouse model with organ engraftment", "setting": "[1]", "value": "effective"}, {"measurement": "energy expenditure", "setting": "C57BL/6N male mice", "value": "higher"}, {"measurement": "behaviour of DMSO solution mixed with water", "setting": "[2]", "value": "precipitated"}]}
